Patent publication US20240343699A1, “DERIVATIVES OF SUBSTITUTED MORPHOLINES AND USES THEREOF” (Supernus Pharmaceuticals, Inc., priority 2023, published 2024)
“Also recorded” adds a separate entry of the source. Like-named read-outs stand apart in the source and are kept apart here.

How the values were obtained:
[1] = Stability in human whole blood, red blood cells and plasma (with/without protease inhibitors, pH 6.0); type: in vitro ADME
Protocol: (§1) Stability of Test Articles at Different pH Values. 10 mM stock solutions of COMPOUND A were prepared in DMSO. From this stock solution, a single concentration in a 10 μL aliquot was added to three fluid matrices: SGF at pH 2.0 (gastric), SIF at pH 6.0 (upper intestine), and PBS at 7.4 (systemic). The final volume was 1 mL (0.1 mM). The preparations were then incubated at 37° C. and samples were collected at 0, 15, 30, 60, and 120 min for analysis of parent material by LC/MS/MS. The collected sample was quenched in acetonitrile/0.1% formic acid mixture. Red Blood Cell (RBC): Human and rat blood were centrifuged to separate out red blood cells at […] for 15 min. The upper plasma level was aspirated with a micropipette and placed in a bleach solution for disposal. The RBC pellet was resuspended in sterile isotonic saline. The pellet was gently resuspended by rocking the tube. The sample was then centrifuged again to collect the RBC pellet and then resuspended and washed one more time following the same procedure. A total of three was done. Following the last wash and centrifugation, the RBCs were resuspended with PBS; and mixed by inversion. Aliquots of the resuspended and washed RBCs were then placed into 4 reaction tubes. These tubes were centrifuged to collect the RBCs. The fluid level was marked on each tube, then the supernatant was aspirated off and the cells resuspended with room temperature PBS pH 7.4 to the original mark. An aliquot of the RBC suspension was added to four sterile tubes containing PBS pH 7.4 at room temperature.
(§2) Stability in Human and Rat Red Blood cells and Hemolysis. […] After centrifugation, 70 μL of supernatant (without disturbing the pellet) was transferred to a clean and clear polystyrene flat bottomed 96-well plate and the absorbance of the sample at a single wavelength was measured using a Bio Tech Synergy Hl Plate Reader at a wavelength of 410 nm. […] Stability was measured by measuring loss of parent compound using LC/MS/MS.

[2] = PK after single PO administration of COMPOUND A
[3] = system: amidase; experiment: Stability in the presence of amidase and amidase inhibitors in PBS; type: biochemical; conditions: amidase 50 units in PBS
Protocol: Stability of COMPOUND A in the Presence of Amidase in Pure System. […] Test article (COMPOUND A) stock solution was prepared in 100% DMSO at a concentration of 10 mM. An aliquot (50 μL) of test article stock solution was added to 950 μL of PBS with and without amidase (50 units) in 1.5 mL tubes, and the mixture was vortexed and incubated at 37° C. with 5% CO2 for 120 min. Samples (50 μL) were taken at 0, 15, 30, 60, and 120 min after being vortexed. Samples were quenched in 150 μL acetonitrile/0.1% formic acid solution and briefly vortexed then immediately frozen at −80° C. Stability was determined by measuring loss of parent compound using LC/MS/MS methods. Each exposure condition and time point were done in triplicate.
Stability of COMPOUND A in the Presence of Amidase and Amidase Inhibitors in a Phosphate-buffered Saline (PBS). To confirm inhibition of the amidase, individual inhibitors were added to PBS with amidase (50 units). A solution without amidase and without inhibitors was also tested as a control. The individual inhibitors tested were Chloroacetone at 200 μM and MAFP at 40 nM. Amidase solution was prepared as described above and inhibitors were added to the solutions to the intended concentrations. […] Stability was determined by measuring loss of parent compound using LC/MS/MS methods. […]

[4] = system: sleep/wake and cataplexy; type: in vivo, male DTA mice
[5] = system: rat red blood cells; experiment: Hemolysis in rat blood; type: cell-based
Protocol: as §1, §2

[6] = COMPOUND A 30, 90 and 120 mg/kg, first 6 h
[7] = COMPOUND A 90 and 120 mg/kg, ZT19-ZT24
[8] = COMPOUND A 90 and 120 mg/kg, first 6 h
[9] = all concentrations of COMPOUND A, first 6 h

SMILES: CCOc1ccccc1OC[C@@H]1CN(C(=O)OC(C)OC(=O)[C@@H](N)C(C)C)CCO1 (stereo partly shown) [COMPOUND A]
- stability in human plasma at pH 6.0 ([1]; 0-30 min): slower degradation compared to the other matrices
- stability in human plasma with protease inhibitor cocktail ([1]; 0-30 min): time-dependent decrease in the amount of parent compound present
- stability in human red blood cells and whole blood ([1]; 0.5 mM, 0-120 min): time-dependent decrease in the amount of parent compound present
- Clinical observation (tolerability) ([2]; 60 or 120 mg/kg PO): well tolerated
- enantiomer R(+)-VLX in plasma ([2]; COMPOUND A 60 or 120 mg/kg PO, LLOQ 1.5 ng/mL): not detectable at most time points
- plasma concentration of the derivative itself ([2]; COMPOUND A 60 or 120 mg/kg PO, LLOQ 3 ng/mL): not detectable; also recorded: below LLOQ in all the samples collected
- role of amidase in degradation [3]: amidase activity played an important role
- W and NREM (hourly, cumulative and total time) ([4]; COMPOUND A 30 mg/kg, ZT19-ZT24): W increased overall (treatment effect) and NREM decreased overall
- C levels during ZT24 ([4]; COMPOUND A 120 mg/kg): approximately half of vehicle levels
- NREM (hourly, cumulative and total time) ([4]; COMPOUND A 120 mg/kg, ZT19-ZT24): NREM increased overall
- latency to REM ([4]; COMPOUND A 10, 30, 90, 120 mg/kg p.o., first 6 h of dark period): increased the latency to REM
- number of C bouts [4, 6]: the number of C bouts decreased overall
- total NREM time [4, 6]: total NREM time increased
- total time in C (cataplexy) [4, 6]: total time in C decreased
- REM and C during the 6-h recording ([4]; COMPOUND A 90 and 120 mg/kg): practically eliminated
- REM:NR ratios [4, 7]: REM:NR ratios decreased
- latency to REM [4, 7]: The latency to REM increased
- LMA [4, 8]: LMA decreased overall
- Total W time [4, 8]: Total W time decreased
- C (cataplexy) ([4]; COMPOUND A two highest concentrations, ZT19-ZT24): significantly decreased
- NREM alpha, beta and high gamma EEG power [4, 9]: decreased overall
- total time in REM [4, 9]: decreased total time in REM
- REM:NR ratios ([4]; all test conditions, first 6 h): REM:NR ratios decreased
- hemolysis (% RBC lysis) ([5]; rat blood, 25, 50, 100 μM, 1 hr): no detectable hemolysis
- EC50 (% RBC lysis) ([5]; rat blood, 60 min exposure): outside the concentration range tested
